Assay results published in patent US20240148821A1, “PHARMACEUTICAL USE OF CYCLIC PEPTIDE COMPOUND” (CHUGAI SEIYAKU KABUSHIKI KAISHA, priority 2021, published 2024).
Bridge positions count the residues as written; N and C are the ends. Square brackets hold non-standard residues; d marks the D form. Peptide text beside a SMILES is read from it. * marks the point of attachment. hPhe(3,5-F2-4-CF3) = N[C@@H](CCc1cc(F)c(C(F)(F)F)c(F)c1)C(=O)O; hPhe(3-Cl-4-CF3) = N[C@@H](CCc1ccc(C(F)(F)F)c(Cl)c1)C(=O)O; NMePhe(4-CF3) = CN[C@@H](Cc1ccc(C(F)(F)F)cc1)C(=O)O; NMeAbu(4,4,4-F3) = CN[C@@H](CC(F)(F)F)C(=O)O; NMePhe(4-Me) = CN[C@@H](Cc1ccc(C)cc1)C(=O)O; NMeGly(cPent) = CN[C@H](C(=O)O)C1CCCC1; Pro(4,4-F2) = O=C(O)[C@@H]1CC(F)(F)CN1; NMeCha = CN[C@@H](CC1CCCCC1)C(=O)O; NMehLeu = CN[C@@H](CCC(C)C)C(=O)O; Hyp = O=C(O)[C@@H]1C[C@@H](O)CN1; NMeChg = CN[C@H](C(=O)O)C1CCCCC1; NMeI = CC[C@H](C)[C@H](NC)C(=O)O; NMeD = CN[C@@H](CC(=O)O)C(=O)O; NMeL = CN[C@@H](CC(C)C)C(=O)O; NMeNva = CCC[C@H](NC)C(=O)O; NMeV = CN[C@H](C(=O)O)C(C)C; d(β3hA) = C[C@@H](N)CC(=O)O; Azetidin(1-yl) = C1CN(*)C1; Morpholide = C1CN(*)CCO1; NMeA = CN[C@@H](C)C(=O)O; Piperidide = C1CCN(*)CC1; Pyrrolidide = C1CCN(*)C1; Ac5c = NC1(C(=O)O)CCCC1; Aze = O=C(O)[C@@H]1CCN1; NEtG = CCNCC(=O)O; Sar = CNCC(=O)O

Legend:
[1] = system: Human pancreatic cancer cell line AsPC-1 (G12D mutation Kras); experiment: AsPC-1 cell growth inhibition (AsPC-1 CGI); type: cell-based; settings: read-out: AsPC-1 cell growth inhibition, 50% growth inhibitory concentration (IC50 value); 96 hours, CellTiter-Glo, values classified in ranges
Description: Test compounds were serially dilated with dimethyl sulfoxide, and 200 nL was then dispensed to a U-bottom 96-well plate using Labcyte Echo. […] The cell suspension was dispensed to a. plate containing a test compound at 100 μL per well and incubated at 37° C. in a 5% carbon dioxide gas incubator. 96 hours later, 80 μL of CellTiter-Glo (Promega) was added to each well and fluorescence was measured.

[2] = biological target: protein-protein interaction between Kras and SOS1 (biotin-tagged human Kras loaded with GDP, His-tagged human SOS1) (Homo sapiens (Human), UniProt P01116, G12D); experiment: Protein-protein interaction inhibition between Kras and SOS1 (KrasG12D-SOS PPI) using AlphaScreen; type: biochemical; settings: AlphaScreen; biotin-tagged human Kras loaded with GDP, His-tagged human SOS1; read-out: KRAS G12D-SOS PPI IC50;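 further: kras produced in E. coli, Ni-coupled donor beads and streptavidin acceptor beads, excitation 680 nm with emission detected at 520–620 nm via singlet oxygen transfer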

Row | Compound | IC50 [1] [nM] | IC50 [2] [nM]
1 | CC[C@H](C)[C@@H]1NC(=O)[C@H](CC(C)C)N(C)C(=O)C[C@@H](C(=O)N2CCOCC2)N(C)C(=O)[C@H](C2CCCC2)N(C)C(=O)C2(CCCC2)NC(=O)[C@@H]2CCCN2C(=O)[C@H](CCc2ccc(C(F)(F)F)c(Cl)c2)NC(=O)CN(CC)C(=O)[C@H](CC2CCCCC2)N(C)C(=O)[C@@H]2CCN2C(=O)[C@H](C)N(C)C1=O [Compound 1272] ([NMeL]I[NMeA][Aze][NMeCha][NEtG][hPhe(3-Cl-4-CF3)]P[Ac5c][NMeGly(cPent)][NMeD]-Morpholide; lactam N-11) | ≤ 20 | 2
2 | CC[C@H](C)[C@@H]1NC(=O)[C@H](CC(C)C)N(C)C(=O)C[C@@H](C(=O)N2CCCCC2)N(C)C(=O)[C@H](C(C)C)N(C)C(=O)C2(CCCC2)NC(=O)[C@@H]2CCCN2C(=O)[C@H](CCc2ccc(C(F)(F)F)c(Cl)c2)NC(=O)CN(CC)C(=O)[C@H](CC2CCCCC2)N(C)C(=O)[C@@H]2CCN2C(=O)[C@H](C)N(C)C1=O [Compound 1276] ([NMeL]I[NMeA][Aze][NMeCha][NEtG][hPhe(3-Cl-4-CF3)]P[Ac5c][NMeV][NMeD]-Piperidide; lactam N-11) | > 500 | 17
3 | CC[C@H](C)[C@@H]1NC(=O)[C@H](CC(C)C)N(C)C(=O)C[C@@H](C(=O)N2CCC2)N(C)C(=O)[C@H](C2CCCC2)N(C)C(=O)C2(CCCC2)NC(=O)[C@@H]2CC(F)(F)CN2C(=O)[C@H](CCc2ccc(C(F)(F)F)c(Cl)c2)NC(=O)CN(C)C(=O)[C@H](CC2CCCCC2)N(C)C(=O)[C@@H]2CCN2C(=O)[C@H](C)N(C)C1=O [Compound 1283] ([NMeL]I[NMeA][Aze][NMeCha][Sar][hPhe(3-Cl-4-CF3)][Pro(4,4-F2)][Ac5c][NMeGly(cPent)][NMeD]-{Azetidin(1-yl)}; lactam N-11) | ≤ 20 | 0.63
4 | CCC[C@H]1C(=O)N[C@@H]([C@@H](C)CC)C(=O)N(C)CC(=O)N(C)CC(=O)N(C)[C@@H](Cc2ccc(C)cc2)C(=O)N(C)CC(=O)N[C@@H](CCc2ccc(C(F)(F)F)c(Cl)c2)C(=O)N2C[C@H](OCC)C[C@H]2C(=O)NC2(CCCC2)C(=O)N(C)[C@@H](C2CCCCC2)C(=O)N(C)[C@H](C(=O)N2CCCC2)CC(=O)N1C [Compound 1285] ([NMeNva]I[Sar][Sar][NMePhe(4-Me)][Sar][hPhe(3-Cl-4-CF3)][Hyp](Et)[Ac5c][NMeChg][NMeD]-Pyrrolidide; lactam N-11) | ≤ 20 | 0.53
5 | CCO[C@@H]1C[C@H]2C(=O)NC3(CCCC3)C(=O)N(C)[C@@H](C3CCCCC3)C(=O)N(C)[C@H](C(=O)N3CCOCC3)CC(=O)N(C)[C@@H](CC(C)C)C(=O)N[C@@H]([C@@H](C)CC)C(=O)N(C)CC(=O)N(C)CC(=O)N(C)[C@@H](CC3CCCCC3)C(=O)N(C)CC(=O)N[C@@H](CCc3cc(F)c(C(F)(F)F)c(F)c3)C(=O)N2C1 [Compound 1290] ([NMeL]I[Sar][Sar][NMeCha][Sar][hPhe(3,5-F2-4-CF3)][Hyp](Et)[Ac5c][NMeChg][NMeD]-Morpholide; lactam N-11) | ≤ 20 | 0.63
6 | CC[C@H](C)[C@@H]1NC(=O)[C@H](CC(C)C)N(C)C(=O)C[C@@H](C(=O)N2CCOCC2)N(C)C(=O)[C@H]([C@@H](C)CC)N(C)C(=O)C2(CCCC2)NC(=O)[C@@H]2CCCN2C(=O)[C@H](CCc2ccc(C(F)(F)F)c(Cl)c2)NC(=O)CN(C)C(=O)[C@H](Cc2ccc(C(F)(F)F)cc2)N(C)C(=O)[C@@H]2CCN2C(=O)[C@H](C)NC1=O [Compound 1293] ([NMeL]IA[Aze][NMePhe(4-CF3)][Sar][hPhe(3-Cl-4-CF3)]P[Ac5c][NMeI][NMeD]-Morpholide; lactam N-11) | ≤ 20 | 0.96
7 | CCO[C@@H]1C[C@H]2C(=O)NC3(CCCC3)C(=O)N(C)[C@@H](C3CCCCC3)C(=O)N(C)[C@H](C(=O)N3CCOCC3)CC(=O)N(C)[C@@H](CC(F)(F)F)C(=O)N[C@@H]([C@@H](C)CC)C(=O)N(C)CC(=O)N(C)CC(=O)N(C)[C@@H](Cc3ccc(C(F)(F)F)cc3)C(=O)N(C)CC(=O)N[C@@H](CCc3cc(F)c(C(F)(F)F)c(F)c3)C(=O)N2C1 [Compound 1297] ([NMeAbu(4,4,4-F3)]I[Sar][Sar][NMePhe(4-CF3)][Sar][hPhe(3,5-F2-4-CF3)][Hyp](Et)[Ac5c][NMeChg][NMeD]-Morpholide; lactam N-11) | ≤ 20 | 0.51
8 | CC[C@H](C)[C@@H]1NC(=O)[C@H](CC(C)C)N(C)C(=O)C[C@@H](C)NC(=O)[C@H](C2CCCC2)N(C)C(=O)C2(CCCC2)NC(=O)[C@@H]2CCCN2C(=O)[C@H](CCc2ccc(C(F)(F)F)c(Cl)c2)NC(=O)CN(C)C(=O)[C@H](C)N(C)C(=O)[C@@H]2CCN2C(=O)[C@H](C)N(C)C1=O [Compound 1300] (cyclo([Ac5c][NMeGly(cPent)][d(β3hA)][NMeL]I[NMeA][Aze][NMeA][Sar][hPhe(3-Cl-4-CF3)]P)) | > 500 | 94
9 | CCO[C@@H]1C[C@H]2C(=O)NC3(CCCC3)C(=O)N(C)[C@@H](C3CCCCC3)C(=O)N(C)[C@H](C(=O)N3CCCC3)CC(=O)N(C)[C@@H](CC(F)(F)F)C(=O)N[C@@H]([C@@H](C)CC)C(=O)N(C)CC(=O)N(C)CC(=O)N(C)[C@@H](Cc3ccc(C)cc3)C(=O)N(C)CC(=O)N[C@@H](CCc3cc(F)c(C(F)(F)F)c(F)c3)C(=O)N2C1 [Compound 1301] ([NMeAbu(4,4,4-F3)]I[Sar][Sar][NMePhe(4-Me)][Sar][hPhe(3,5-F2-4-CF3)][Hyp](Et)[Ac5c][NMeChg][NMeD]-Pyrrolidide; lactam N-11) | ≤ 20 | 0.67
10 | CC[C@H](C)[C@@H]1NC(=O)[C@H](CC(C)C)N(C)C(=O)C[C@@H](C(=O)N2CCOCC2)N(C)C(=O)[C@H](C2CCCC2)N(C)C(=O)C2(CCCC2)NC(=O)[C@@H]2CCCN2C(=O)[C@H](CCc2cc(F)c(C(F)(F)F)c(F)c2)NC(=O)CN(C)C(=O)[C@H](CC2CCCCC2)N(C)C(=O)[C@@H]2CCN2C(=O)[C@H](C)N(C)C1=O [Compound 1308] ([NMeL]I[NMeA][Aze][NMeCha][Sar][hPhe(3,5-F2-4-CF3)]P[Ac5c][NMeGly(cPent)][NMeD]-Morpholide; lactam N-11) | ≤ 20 | 0.65
11 | CC[C@H](C)[C@@H]1NC(=O)[C@H](CCC(C)C)N(C)C(=O)C[C@@H](C(=O)N2CCCC2)N(C)C(=O)[C@H]([C@@H](C)CC)N(C)C(=O)C2(CCCC2)NC(=O)[C@@H]2CCCN2C(=O)[C@H](CCc2ccc(C(F)(F)F)c(Cl)c2)NC(=O)CN(C)C(=O)[C@H](Cc2ccc(C(F)(F)F)cc2)N(C)C(=O)[C@@H]2CCN2C(=O)[C@H](C)NC1=O [Compound 1310] ([NMehLeu]IA[Aze][NMePhe(4-CF3)][Sar][hPhe(3-Cl-4-CF3)]P[Ac5c][NMeI][NMeD]-Pyrrolidide; lactam N-11) | ≤ 20 | 0.87
12 | CC[C@H](C)[C@@H]1NC(=O)[C@H](CC(C)C)N(C)C(=O)C[C@@H](C(=O)N2CCOCC2)N(C)C(=O)[C@H]([C@@H](C)CC)N(C)C(=O)C2(CCCC2)NC(=O)[C@@H]2CC(F)(F)CN2C(=O)[C@H](CCc2ccc(C(F)(F)F)c(Cl)c2)NC(=O)CN(C)C(=O)[C@H](Cc2ccc(C(F)(F)F)cc2)N(C)C(=O)[C@@H]2CCN2C(=O)[C@H](C)N(C)C1=O [Compound 1311] ([NMeL]I[NMeA][Aze][NMePhe(4-CF3)][Sar][hPhe(3-Cl-4-CF3)][Pro(4,4-F2)][Ac5c][NMeI][NMeD]-Morpholide; lactam N-11) | ≤ 20 | 0.51
